Results: patent publication US6410588B1, “Use of cannabinoids as anti-inflammatory agents” (priority 1998, dated 2002)
“Also recorded” adds a separate entry of the source.

Legend:
IL-10 = assay: human rheumatoid synovial cell IL-10 production (ELISA); assay type: cell-based; conditions: for IL-10, mean: 48 hours culture
Procedure: Synovial membrane tissue was obtained from a patient fulfilling the revised American College of Rheumatology criteria for rheumatoid arthritis who underwent joint replacement surgery. Synovial cell cultures were prepared as described. Briefly, synovial membrane tissue was digested with collagenase type A (1 mg/ml) and DNAase I (0.15 mg/ml) in RPMI 1640 containing 5% FCS for 2 hours at 37° C.
Similarly, rheumatoid synovial cells spontaneously produce cytokines when cultured in vitro. […] With restricted number of human synovial cells in this sample, the optimal dose for inhibiting TNFα may have been missed.

schizophrenia = conditions: in vivo; cited from earlier work
IFNγ = conditions: cited from earlier work
chronic CIA = assay: chronic CIA, oral feeding of CBD; assay type: in vivo, mouse; conditions: 25 mg/kg oral daily
Procedure: Controls were fed vehicle (olive oil).
For the chronic experiments, 6 weeks old mice were immunized with mouse CII (100 μg CII i.d.=intradermal). From day 30 after immunization onwards, the mice developed a chronic relapsing arthritis, which was monitored for 5 weeks, in the same way as described above.
For the chronic experiment with mouse CII, mice were treated from the first symptoms of arthritis every other day, for 5 weeks. […] Again, mice injected with Vehicle alone served as controls (n=7). For the oral route, the treatment was administered daily at a dose of 25 mg/kg (n=6) and control mice were fed olive oil (n=6).

[1] = test system: 51Cr-labeled P815 lymphoma cell line; assay: cell mediated cytotoxicity after mixed leukocyte culture; assay type: cell-based, mouse
Procedure: Cells harvested from MLC were tested for their cytotoxic activity against ^51Cr-labeled P815 (H-2^d)lymphoma cell line. Cytotoxic activity is given in LU/10^6cells (see Materials and Methods).
MHC-restricted CTL were activated in MLC by co-culturing 2.5×10^6 responding spleen cells for 5 days with an equal number of irradiated (25 Gy) allogeneic splenocytes in 2 ml/well of complete DMEM in 24-well plates (Costar).
Cytotoxic assays were performed as described previously (Leshem et al, 1999). Briefly, effector cells were serially diluted (threefold) in triplicate wells of conical-bottom microplates (Nunc) and mixed with washed ^51Cr-labeled target cells in a final 200 μl volume to make 4-6 effector target cell ratios. Microplates were centrifuged (70×g, 2 min.) and incubated for 4 h. They were then centrifuged at 200×g for 5 min. and the supernatants (150 μl) were counted in an automatic […] (LKB-Wallac, Finland). Percent of specific cytotoxic activity was calculated according to the formula: [(experimental cpm−background cpm)/(maximal cpm−background cpm)×100]. Lytic units (LU), were drawn from the cytotoxicity measured at 4-6 E:T cell ratios. One 1 LU is defined as the number of effector cells causing lysis of 30% target cells (Leshem and Brass, 1998).

PBQ-induced writhing = conditions: orally at doses up to 10 mg/kg; cited from earlier work
IL-1β release = IL-1β release by LPS-stimulated human PBMC; assay type: cell-based; conditions: for IL-1β: LPS 10 ng/ml 24 hours, mean ± SEM
Procedure: CBD was dissolved in ethanol/DMSO.
Peripheral blood mononuclear cells (PBMC) were isolated from the whole blood of healthy donors by Ficoll Hypaque gradient. […] After this 6 hour pretreatment period, the cells were stimulated with either LPS from Salmonella typhimirium, 10 ng/ml, for 24 hours (for TNF and IL-1β) or with PHA, 5 μg/ml, for 72 hours (for IFNγ) Viability of the PBMC was assessed with the MTT test.
Human PBMC were cultured and stimulated with or without CBD, as described in Materials and Methods. The stimulus for TNF and IL-1 production was LPS, the stimulus for IFNγ production was PHA. The results are the mean of triplicate wells±SEM. ND=not done.

[2] = test system: mRNA of IL-1, IL-6 and TNFα; conditions: BALB/C mice injected with cannabidiol; cited from earlier work
[3] = test system: collagen induced arthritis (CIA); assay: histological analysis of hind paw joints in CIA; assay type: in vivo, mouse; conditions: for joints completely protected: hind paws, day 10, control: no normal joints
Procedure: The hind paws were assessed as normal, mildly affected or severely destroyed.
Hind paws and knee joints were removed post mortem on the tenth day of arthritis, fixed in formalin and decalcified in 5% EDTA. Paws and knees were then embedded in paraffin, sectioned and stained with haematoxylin and eosin. Arthritic changes in the ankle, the metatarsophalangeal joints, the proximal interphalangeal and the distal interphalangeal joints were scored blindly as mild (mild synovial hyperplasia), moderate (pannus formulation and erosions limited to the cartilage-pannus junction), or severe (=extended bone and cartilage erosions with loss of joint architecture).

serum TNFα = serum TNFα level after LPS stimulation (bioassay); assay type: in vivo, mouse (C57BL/6); conditions: 10 mg/kg (200 μg/mouse) ip or s.c. with 100 μg LPS ip; 90 min
Procedure: After 90 min. the mice were bled and serum TNFα level was determined by bioassay.

spleen cells = assay: mixed leukocyte reaction (MLR); assay type: cell-based, mouse (BALB/c); conditions: above 4 μg/ml CBD
Procedure: Cultures were pulsed with ^3H-thymidine and harvested 18 hours later.
Spleen cells (1×10^6/well) were co-cultured in triplicate wells of flat-bottom microtiter plates (Nunc), with an equal number of irradiated ([…]) syngeneic or allogeneic splenocytes in a final volume of 200 μl/well. After 3-days incubation, the cells were labelled with ^3H-thymidine (1 μCi/well) and harvested, following an additional incubation of 18 h, as described above.

With `C=C(C)[C@@H]1CCC(C)=C[C@H]1c1c(O)cc(CCCCC)cc1O` [CBD, Cannabidiol] the “IL-10 release (in words)” value (IL-10) was “dose-dependent inhibition”, the “IL-10, mean” value (IL-10; CBD 0.1 μg/ml) was 273 pg/mL and the “IL-10, mean” value (IL-10; CBD 1 μg/ml) was 249 pg/mL. The “IL-10, mean” value (IL-10; CBD 20 μg/ml) was 52 pg/mL, the “antipsychotic effects in schizophrenia” value (schizophrenia) was “antipsychotic effects” and the IFNγ synthesis (IFNγ; high concentrations (5-24 μg/ml)) was “completely blocked IFNγ synthesis”. For the same compound, the IFNγ production (IFNγ; low concentrations) was “increase IFNγ production”, the “progression of chronic CIA (in words)” value (chronic CIA) was “suppression of the progression of chronic CIA” and the “area under the curve of arthritis score” value (chronic CIA; controls 72.3) was 49.7. The cell mediated cytotoxicity ([1]; above approximately 1 μg/ml CBD) was “decrease in cytotoxicity”, the cell mediated cytotoxicity ([1]; low concentrations of CBD) was “increase cytotoxicity” and the PBQ-induced writhing (PBQ-induced writhing) was “inhibited PBQ-induced writhing”. For the same compound, the IL-1β (IL-1β release; CBD 0.1 μg/ml) was 621 ± 82 pg/mL, the IL-1β (IL-1β release; CBD 1 μg/ml) was 671 ± 74 pg/mL and the IL-1β (IL-1β release; CBD 2.5 μg/ml) was 630 ± 81 pg/mL. For the same compound, the IL-1β (IL-1β release; CBD 5 μg/ml) was 908 ± 99 pg/mL, the IL-1β (IL-1β release; CBD 10 μg/ml) was 1575 ± 335 pg/mL and the IL-1β (IL-1β release; CBD 20 μg/ml) was 2292 ± 251 pg/mL. The IL-1β (IL-1β release; CBD 30 μg/ml) was 4158 ± 313 pg/mL, the “effect on LPS-induced IL-1β release (in words)” value (IL-1β release; higher concentrations of CBD) was “increased their release” and the “effect on LPS-induced IL-1β release (in words)” value (IL-1β release; lower concentrations of CBD (0.1 to 5 μg/ml)) was “significantly suppressed”. For the same compound, the “level of mRNA of IL-1, IL-6 and TNFα” value [2] was “did not show significant change”, the “joints moderately or severely affected” value ([3]; 5 mg/kg CBD, control mice 69%) was 42% and the joints completely protected ([3]; 5 mg/kg CBD) was 33%. The joints completely protected ([3]; 10 mg/kg CBD) was 11%, the “serum TNFα level (in words)” value (serum TNFα) was “decreases serum TNFα production; also recorded: reduces serum TNFα levels” and the “3H-thymidine uptake in MLR” value (spleen cells) was “slight decrease”.
